Data reported in patent US20250025451A1, “TREATMENT OF CANCER WITH KDM4 INHIBITORS” (Celgene Corporation, priority 2021, published 2025).

System: 301 cancer cell lines from different tumor types
Assay: 2D cell viability inhibition assay, broad cancer cell line panel (OncoPanel; CellTiter-Glo)
Format: cell-based
Set-up: key to Emax: % of DMSO control (minimum response over dose range); AUC: scale not given here
Conditions: for AUC / Emax: 168 hours; for Emax: in % (unit assumed)
Method: In a larger screening study, compound 1 was evaluated across a broad cancer cell line panel (OncoPanel; HD Biosciences) composed of 301 cancer cell lines from different tumor types.
2D cell viability inhibition assays were performed in multiwell plates seeded with cells from the panel. After seeding, the plates were cultured overnight in a humidified incubator at 37° C. to promote adherence. Assays were initiated in individual wells by adding either DMSO as a vehicle control, growth media as a blank, or serially diluted compound 1 (10 μM to 0.0005 μM with 1:3 serial dilution). Cultures were incubated for 168 hours after which the number of viable cells in each test well was assessed using the CellTiter-Glo® Luminescent Cell Viability Assay. Luminescence readouts were performed using an EnVision® Multilabel Reader and the compound 1 readouts were normalized to the DMSO control readouts, expressed as a percent of the control. Outliers were flagged out by visual inspection. Percent of control was plotted against the corresponding compound 1 concentration and the absolute IC50 value was determined using four-parameter logistic non-linear regression as the concentration where inhibition was 50% of the control. […] Emax was recorded as the minimum in y with the compound dose range. […] The sensitive/moderate/resistant calls for each cell line was determined by visually inspecting the resulting clustering dendrogram. All the analyses were done in R Core Team.

[1] = 168 h, HUH28 (biliary tract, NS)
[2] = 168 h, KG1 (haematopoietic and lymphoid tissue, acute myeloid leukaemia)
[3] = 168 h, KURAMOCHI (ovary, undifferentiated carcinoma)
[4] = 168 h, NMCG1 (central nervous system, NS)
[5] = 168 h, T24 (urinary tract, transitional cell carcinoma)
[6] = 168 h, TE1 (oesophagus, squamous cell carcinoma)
[7] = 168 h, TE8 (oesophagus, squamous cell carcinoma)
[8] = BT20 (breast, ductal carcinoma)
[9] = BT474 (breast, ductal carcinoma)
[10] = C2BBE1 (large intestine, adenocarcinoma)
[11] = CAL27 (upper aerodigestive tract, squamous cell carcinoma)
[12] = CALU1 (lung, squamous cell carcinoma)
[13] = CAPAN2 (pancreas, ductal carcinoma)
[14] = CCFSTTG1 (central nervous system, astrocytoma)
[15] = DAOY (central nervous system, NS)
[16] = DMS53 (lung, small cell carcinoma)
[17] = HCC38 (breast, ductal carcinoma)
[18] = HCC1419 (breast, ductal carcinoma)
[19] = HCC1937 (breast, ductal carcinoma)
[20] = Homo sapiens, A204, 168 h, A204 (soft tissue, NS)
[21] = Homo sapiens, BT-20, 168 h, BT20 (breast, ductal carcinoma)
[22] = Homo sapiens, BT-474, 168 h, BT474 (breast, ductal carcinoma)
[23] = Homo sapiens, C2BBe1, 168 h, C2BBE1 (large intestine, adenocarcinoma)
[24] = Homo sapiens, CAL-27, 168 h, CAL27 (upper aerodigestive tract, squamous cell carcinoma)
[25] = Homo sapiens, CCF-STTG1, 168 h, CCFSTTG1 (central nervous system, astrocytoma)
[26] = Homo sapiens, Calu-1, 168 h, CALU1 (lung, squamous cell carcinoma)
[27] = Homo sapiens, Calu-3, 168 h, CALU3 (lung, adenocarcinoma)
[28] = Homo sapiens, Capan-2, 168 h, CAPAN2 (pancreas, ductal carcinoma)
[29] = Homo sapiens, DMS-53, 168 h, DMS53 (lung, small cell carcinoma)
[30] = Homo sapiens, Daoy, 168 h, DAOY (central nervous system, NS)
[31] = Homo sapiens, G-361, 168 h, G361 (skin, NS)
[32] = Homo sapiens, HCC38, 168 h, HCC38 (breast, ductal carcinoma)
[33] = Homo sapiens, HCC827, 168 h, HCC827 (lung, adenocarcinoma)
[34] = Homo sapiens, HCC1419, 168 h, HCC1419 (breast, ductal carcinoma)
[35] = Homo sapiens, HCC1428, 168 h, HCC1428 (breast, NS)
[36] = Homo sapiens, HCC1937, 168 h, HCC1937 (breast, ductal carcinoma)
[37] = Homo sapiens, HT-144, 168 h, HT144 (skin, NS)
[38] = Homo sapiens, Hs 695T, 168 h, HS695T (skin, NS)
[39] = Homo sapiens, KYSE-70, 168 h, KYSE70 (oesophagus, squamous cell carcinoma)
[40] = Homo sapiens, Kasumi 1, 168 h, KASUMI1 (haematopoietic and lymphoid tissue, acute myeloid leukaemia)
[41] = Homo sapiens, Lu-99, 168 h, LU99 (lung, large cell carcinoma)
[42] = Homo sapiens, MDA-MB-157, 168 h, MDAMB157 (breast, ductal carcinoma)
[43] = Homo sapiens, MDA-MB-175-VII, 168 h, MDAMB 175 VII (breast, ductal carcinoma)
[44] = Homo sapiens, MDA-MB-231, 168 h, MDAMB231 (breast, NS)
[45] = Homo sapiens, MDA-MB-361, 168 h, MDAMB361 (breast, NS)
[46] = Homo sapiens, MDA-MB-415, 168 h, MDAMB415 (breast, NS)
[47] = Homo sapiens, MDA-MB-436, 168 h, MDAMB436 (breast, NS)
[48] = Homo sapiens, MDA-MB-468, 168 h, MDAMB468 (breast, NS)
[49] = Homo sapiens, Malme-3M, 168 h, MALME3M (skin, NS)
[50] = Homo sapiens, MeWo, 168 h, MEWO (skin, NS)
[51] = Homo sapiens, NCI-H441, 168 h, NCIH441 (lung, adenocarcinoma)
[52] = Homo sapiens, NCI-H596, 168 h, NCIH596 (lung, mixed adenosquamous carcinoma)
[53] = Homo sapiens, NCI-H1395, 168 h, NCIH1395 (lung, adenocarcinoma)
[54] = Homo sapiens, NCI-H1563, 168 h, NCIH1563 (lung, adenocarcinoma)
[55] = Homo sapiens, NCI-H1573, 168 h, NCIH1573 (lung, adenocarcinoma)

`CC(C)c1ccc(N(C)c2ccc3c(c2)OCC[C@H]3CNc2cnccc2C(=O)O)cc1` [Compound 1, 3-({[(4R)-7-{methyl[4-(propan-2-yl)phenyl]amino}-3,4-dihydro-2H-1-benzopyran-4-yl]methyl}amino)pyridine-4-carboxylic acid] gave an EC50 (168 h, HS688AT (skin, NS)) of no less than 10 µM, an IC50 (168 h, HS688AT (skin, NS)) of no less than 10 µM and an EC50 (168 h, HS739T (breast, NS)) of no less than 10 µM. For the same molecule, the IC50 (168 h, HS739T (breast, NS)) was no less than 10 µM, the EC50 (168 h, HS839T (skin, NS)) was no less than 10 µM and the IC50 (168 h, HS839T (skin, NS)) was no less than 10 µM. It also gave an EC50 (168 h, HS852T (skin, NS)) of no less than 10 µM, an IC50 (168 h, HS852T (skin, NS)) of no less than 10 µM and an EC50 [1] of no less than 10 µM. The IC50 [1] was no less than 10 µM, the EC50 [2] was no less than 10 µM and the IC50 [2] was no less than 10 µM. It also gave an EC50 [3] of no less than 10 µM, an IC50 [3] of no less than 10 µM and an EC50 [4] of no less than 10 µM. It also gave an IC50 [4] of no less than 10 µM, an EC50 (168 h, SKMEL31 (skin, NS)) of no less than 10 µM and an IC50 (168 h, SKMEL31 (skin, NS)) of no less than 10 µM. It also gave an EC50 [5] of no less than 10 µM, an IC50 [5] of no less than 10 µM and an EC50 [6] of no less than 10 µM. The IC50 [6] was no less than 10 µM, the EC50 [7] was no less than 10 µM and the IC50 [7] was no less than 10 µM. It also gave an AUC (A204 (soft tissue, NS)) of 0.7136, an Emax (A204 (soft tissue, NS)) of 58.91 and an AUC [8] of 0.9117. For the same molecule, the Emax [8] was 78.79, the AUC [9] was 0.7206 and the Emax [9] was 53.88. It also gave an AUC [10] of 0.8303, an Emax [10] of 59.34 and an AUC [11] of 0.8335. It also gave an Emax [11] of 74.68, an AUC [12] of 1.217 and an Emax [12] of 118.4694. It also gave an AUC (CALU3 (lung, adenocarcinoma)) of 0.7277, an Emax (CALU3 (lung, adenocarcinoma)) of 50.88 and an AUC [13] of 0.8808. The Emax [13] was 75.02, the AUC [14] was 0.879 and the Emax [14] was 78.9. The AUC [15] was 0.9684, the Emax [15] was 83.4 and the AUC [16] was 0.7426. For the same molecule, the Emax [16] was 49.07, the AUC (G361 (skin, NS)) was 1.044 and the Emax (G361 (skin, NS)) was 89.52. For the same molecule, the AUC [17] was 0.9864, the Emax [17] was 93.61 and the AUC (HCC827 (lung, adenocarcinoma)) was 0.8814. For the same molecule, the Emax (HCC827 (lung, adenocarcinoma)) was 74.84, the AUC [18] was 0.7201 and the Emax [18] was 52.42. The AUC (HCC1428 (breast, NS)) was 0.7818, the Emax (HCC1428 (breast, NS)) was 59.9889 and the AUC [19] was 0.9094. The Emax [19] was 80.9493, the AUC (HS688AT (skin, NS)) was 1.105 and the Emax (HS688AT (skin, NS)) was 98.47. It also gave an AUC (HS695T (skin, NS)) of 0.9238, an Emax (HS695T (skin, NS)) of 74.11 and an AUC (HS739T (breast, NS)) of 0.8686. For the same molecule, the Emax (HS739T (breast, NS)) was 78.35, the AUC (HS839T (skin, NS)) was 1.097 and the Emax (HS839T (skin, NS)) was 101.2434. The AUC (HS852T (skin, NS)) was 0.883, the Emax (HS852T (skin, NS)) was 78.51 and the AUC (HT144 (skin, NS)) was 0.8912. For the same molecule, the Emax (HT144 (skin, NS)) was 81.61, the AUC (HUH28 (biliary tract, NS)) was 0.9862 and the Emax (HUH28 (biliary tract, NS)) was 92.15. For the same molecule, the EC50 [20] was no less than 10 µM, the IC50 [20] was no less than 10 µM and the EC50 [21] was no less than 10 µM. For the same molecule, the IC50 [21] was no less than 10 µM, the EC50 [22] was no less than 10 µM and the IC50 [22] was no less than 10 µM. The EC50 [23] was no less than 10 µM, the IC50 [23] was no less than 10 µM and the EC50 [24] was no less than 10 µM. For the same molecule, the IC50 [24] was no less than 10 µM, the EC50 [25] was no less than 10 µM and the IC50 [25] was no less than 10 µM. It also gave an EC50 [26] of no less than 10 µM, an IC50 [26] of no less than 10 µM and an EC50 [27] of no less than 10 µM. It also gave an IC50 [27] of no less than 10 µM, an EC50 [28] of no less than 10 µM and an IC50 [28] of no less than 10 µM. It also gave an EC50 [29] of no less than 10 µM, an IC50 [29] of no less than 10 µM and an EC50 [30] of no less than 10 µM. The IC50 [30] was no less than 10 µM, the EC50 [31] was no less than 10 µM and the IC50 [31] was no less than 10 µM. The EC50 [32] was no less than 10 µM, the IC50 [32] was no less than 10 µM and the EC50 [33] was no less than 10 µM. For the same molecule, the IC50 [33] was no less than 10 µM, the EC50 [34] was no less than 10 µM and the IC50 [34] was no less than 10 µM. It also gave an EC50 [35] of no less than 10 µM, an IC50 [35] of no less than 10 µM and an EC50 [36] of no less than 10 µM. It also gave an IC50 [36] of no less than 10 µM, an EC50 [37] of no less than 10 µM and an IC50 [37] of no less than 10 µM. For the same molecule, the EC50 [38] was no less than 10 µM, the IC50 [38] was no less than 10 µM and the EC50 [39] was no less than 10 µM. For the same molecule, the IC50 [39] was no less than 10 µM, the EC50 [40] was no less than 10 µM and the IC50 [40] was no less than 10 µM. It also gave an EC50 [41] of no less than 10 µM, an IC50 [41] of no less than 10 µM and an EC50 [42] of no less than 10 µM. It also gave an IC50 [42] of no less than 10 µM, an EC50 [43] of no less than 10 µM and an IC50 [43] of no less than 10 µM. For the same molecule, the EC50 [44] was no less than 10 µM, the IC50 [44] was no less than 10 µM and the EC50 [45] was no less than 10 µM. It also gave an IC50 [45] of no less than 10 µM, an EC50 [46] of no less than 10 µM and an IC50 [46] of no less than 10 µM. For the same molecule, the EC50 [47] was no less than 10 µM, the IC50 [47] was no less than 10 µM and the EC50 [48] was no less than 10 µM. The IC50 [48] was no less than 10 µM, the EC50 [49] was no less than 10 µM and the IC50 [49] was no less than 10 µM. It also gave an EC50 [50] of no less than 10 µM, an IC50 [50] of no less than 10 µM and an EC50 [51] of no less than 10 µM. The IC50 [51] was no less than 10 µM, the EC50 [52] was no less than 10 µM and the IC50 [52] was no less than 10 µM. It also gave an EC50 [53] of no less than 10 µM, an IC50 [53] of no less than 10 µM and an EC50 [54] of no less than 10 µM. The IC50 [54] was no less than 10 µM, the EC50 [55] was no less than 10 µM and the IC50 [55] was no less than 10 µM.
